Measured values from ChEMBL document CHEMBL4823332, “Discovery and Development of Cyclic Peptide Inhibitors of CIB1” (ACS Med Chem Lett, 2021).
Positions of bridges follow the written chain, without caps; N, C: chain ends. Non-standard residues stand in square brackets, D forms with d. Residues, ends and D or L forms follow the SMILES beside them. ξ: configuration not given here. NMeW = CN[C@@H](Cc1c[nH]c2ccccc12)C(=O)O; Ala(2-furyl) = N[C@@H](Cc1ccco1)C(=O)O; NMeY = CN[C@@H](Cc1ccc(O)cc1)C(=O)O; hLeu = CC(C)CC[C@H](N)C(=O)O; ξhLeu = CC(C)CCC(N)C(=O)O; NMeA = CN[C@@H](C)C(=O)O

target: T1, Calcium and integrin-binding protein 1 (Homo sapiens, UniProt Q99828); test: Displacement of Alexa Fluor 647 labelled UNC10245092 peptide from CIB1 (unknown origin) preincubated for 20 mins followed by Alexa-CIB1 phage peptide addition and measured after 20 to 30 mins by TR-FRET assay
T1 sequence (Q99828 whole entry): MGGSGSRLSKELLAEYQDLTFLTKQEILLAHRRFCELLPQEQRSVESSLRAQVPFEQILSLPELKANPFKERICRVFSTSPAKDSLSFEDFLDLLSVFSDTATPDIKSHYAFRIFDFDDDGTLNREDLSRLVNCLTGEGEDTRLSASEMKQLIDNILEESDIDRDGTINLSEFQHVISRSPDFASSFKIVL

Compared with `CC[C@H](C)[C@@H]1NC(=O)[C@H](CC(C)C)NC(=O)[C@H](Cc2c[nH]c3ccccc23)NC(=O)[C@H](Cc2ccc(O)cc2)NC(=O)[C@@H]2CCCN2C(=O)[C@H](CCC(N)=O)NC(=O)[C@H](CCCCN)NC(=O)[C@H](Cc2ccc(O)cc2)NC(=O)CSC[C@@H](C(N)=O)NC(=O)[C@H](Cc2c[nH]c3ccccc23)NC(=O)[C@H](C)NC1=O` ({CH2CO}-YKQPYWLIAWC-NH2; thioether N-11), `CC[C@H](C)[C@@H]1NC(=O)[C@H](C)NC(=O)[C@H](Cc2c[nH]c3ccccc23)NC(=O)[C@H](Cc2ccc(O)cc2)NC(=O)[C@@H]2CCCN2C(=O)[C@H](CCC(N)=O)NC(=O)[C@H](CCCCN)NC(=O)[C@H](Cc2ccc(O)cc2)NC(=O)CSC[C@@H](C(N)=O)NC(=O)[C@H](Cc2c[nH]c3ccccc23)NC(=O)[C@H](CC(N)=O)NC1=O` ({CH2CO}-YKQPYWAINWC-NH2; thioether N-11) is 5.1-fold lower in IC50: 76 nM for the first, 15 nM for the second.

First: CCCC[C@@H]1NC(=O)[C@H](Cc2ccc(O)cc2)N(C)C(=O)CSC[C@@H](C(N)=O)NC(=O)[C@H](Cc2c[nH]c3ccccc23)NC(=O)[C@H](CC(N)=O)NC(=O)[C@H]([C@@H](C)CC)NC(=O)[C@H](CC(C)C)NC(=O)[C@H](Cc2c[nH]c3ccccc23)NC(=O)[C@H](Cc2ccc(O)cc2)NC(=O)[C@@H]2CCCN2C(=O)[C@@H](CCC(C)C)NC1=O
Second: CC[C@H](C)[C@@H]1NC(=O)[C@H](CC(C)C)NC(=O)[C@H](Cc2c[nH]c3ccccc23)NC(=O)[C@H](Cc2ccc(O)cc2)NC(=O)[C@@H]2CCCN2C(=O)[C@H](CCC(N)=O)NC(=O)[C@H](CCCCN)NC(=O)[C@H](C)NC(=O)CSC[C@@H](C(N)=O)NC(=O)[C@H](Cc2c[nH]c3ccccc23)NC(=O)[C@H](CC(N)=O)NC1=O ({CH2CO}-AKQPYWLINWC-NH2; thioether N-11)
The IC50 of the first is 3-fold lower: 840 nM for the first, 2500 nM for the second. The first is the more potent here.

Compared with `CC[C@H](C)[C@@H]1NC(=O)[C@H]([C@@H](C)O)NC(=O)[C@H](Cc2c[nH]c3ccccc23)NC(=O)[C@@H]2CCCN2C(=O)CNC(=O)[C@H]([C@@H](C)O)NC(=O)[C@H](Cc2ccc(O)cc2)NC(=O)CSC[C@H](C(N)=O)NC(=O)[C@H](Cc2c[nH]c3ccccc23)NC(=O)[C@H](CCCNC(=N)N)NC1=O`, `CC[C@H](C)[C@@H]1NC(=O)[C@H](CC(C)C)NC(=O)[C@H](Cc2c[nH]c3ccccc23)NC(=O)[C@H](Cc2ccc(O)cc2)N(C)C(=O)[C@@H]2CCCN2C(=O)[C@H](CCC(N)=O)NC(=O)[C@H](C)NC(=O)[C@H](Cc2ccc(O)cc2)NC(=O)CSC[C@@H](C(N)=O)NC(=O)[C@H](Cc2c[nH]c3ccccc23)NC(=O)[C@H](CC(C)C)NC1=O` ({CH2CO}-YAQP[NMeY]WLILWC-NH2; thioether N-11) is 5.6-fold higher in IC50: 12 nM for the first, 67 nM for the second.

`CC[C@H](C)[C@@H]1NC(=O)[C@H](CC(C)C)NC(=O)[C@H](Cc2c[nH]c3ccccc23)NC(=O)[C@H](Cc2ccc(O)cc2)NC(=O)[C@@H]2CCCN2C(=O)[C@H](CCC(C)C)NC(=O)[C@H](C)N(C)C(=O)[C@H](Cc2ccc(O)cc2)NC(=O)CSC[C@@H](C(N)=O)NC(=O)[C@H](Cc2c[nH]c3ccccc23)NC(=O)[C@H](Cc2ccco2)NC1=O` ({CH2CO}-Y[NMeA][hLeu]PYWLI[Ala(2-furyl)]WC-NH2; thioether N-11) and `CCCC[C@@H]1NC(=O)[C@H](Cc2ccc(O)cc2)N(C)C(=O)CSC[C@@H](C(N)=O)NC(=O)[C@H](Cc2c[nH]c3ccccc23)NC(=O)[C@@H](Cc2ccco2)NC(=O)[C@H]([C@@H](C)CC)NC(=O)[C@H](CC(C)C)NC(=O)[C@H](Cc2c[nH]c3ccccc23)NC(=O)[C@H](Cc2ccc(O)cc2)N(C)C(=O)[C@@H]2CCCN2C(=O)[C@H](CCC(N)=O)NC1=O` are within 1.5-fold of each other in IC50: 4200 nM for the first, 3900 nM for the second.

Compared with `CC[C@H](C)[C@@H]1NC(=O)[C@H](CC(C)C)NC(=O)[C@H](Cc2c[nH]c3ccccc23)NC(=O)[C@H](Cc2ccc(O)cc2)NC(=O)[C@@H]2CCCN2C(=O)[C@H](CCC(N)=O)NC(=O)[C@H](CCCCN)NC(=O)[C@H](Cc2ccc(O)cc2)NC(=O)CSC[C@@H](C(N)=O)NC(=O)[C@H](C)NC(=O)[C@H](CC(N)=O)NC1=O` ({CH2CO}-YKQPYWLINAC-NH2; thioether N-11), `CC[C@H](C)[C@@H]1NC(=O)[C@H](CC(C)C)NC(=O)[C@H](Cc2c[nH]c3ccccc23)NC(=O)[C@H](C)NC(=O)[C@@H]2CCCN2C(=O)[C@H](CCC(N)=O)NC(=O)[C@H](CCCCN)NC(=O)[C@H](Cc2ccc(O)cc2)NC(=O)CSC[C@@H](C(N)=O)NC(=O)[C@H](Cc2c[nH]c3ccccc23)NC(=O)[C@H](CC(N)=O)NC1=O` ({CH2CO}-YKQPAWLINWC-NH2; thioether N-11) is 15-fold lower in IC50: 7100 nM for the first, 470 nM for the second.

First: CC[C@H](C)[C@@H]1NC(=O)[C@H](CC(C)C)NC(=O)[C@H](Cc2c[nH]c3ccccc23)N(C)C(=O)[C@H](Cc2ccc(O)cc2)NC(=O)[C@@H]2CCCN2C(=O)C(CCC(C)C)NC(=O)[C@H](C)N(C)C(=O)[C@H](Cc2ccc(O)cc2)NC(=O)CSC[C@@H](C(N)=O)NC(=O)[C@H](Cc2c[nH]c3ccccc23)NC(=O)[C@H](CC(N)=O)NC1=O (some centres not stated) ({CH2CO}-Y[NMeA][ξhLeu]PY[NMeW]LINWC-NH2; thioether N-11)
Second: Ac-YKQPYWLINWA-NH2
The IC50 of the first is lower: 190 nM for the first, over 10000 nM for the second.

First: CC[C@H](C)[C@@H]1NC(=O)[C@H](CC(N)=O)NC(=O)[C@H](Cc2c[nH]c3ccccc23)NC(=O)[C@H]([C@@H](C)CC)NC(=O)[C@@H]2CCCN2C(=O)[C@H]([C@@H](C)O)NC(=O)[C@H]([C@@H](C)O)NC(=O)[C@H](Cc2ccc(O)cc2)NC(=O)CSC[C@@H](C(N)=O)NC(=O)[C@H](Cc2ccccc2)NC(=O)[C@H](CCCNC(=N)N)NC1=O ({CH2CO}-YTTPIWNIRFC-NH2; thioether N-11)
Second: CC[C@H](C)[C@@H]1NC(=O)[C@H](CC(C)C)NC(=O)[C@H](Cc2c[nH]c3ccccc23)NC(=O)[C@H](Cc2ccc(O)cc2)NC(=O)[C@H](C)NC(=O)[C@H](CCC(N)=O)NC(=O)[C@H](CCCCN)NC(=O)[C@H](Cc2ccc(O)cc2)NC(=O)CSC[C@@H](C(N)=O)NC(=O)[C@H](Cc2c[nH]c3ccccc23)NC(=O)[C@H](CC(N)=O)NC1=O ({CH2CO}-YKQAYWLINWC-NH2; thioether N-11)
The IC50 of the first is 1.7-fold higher: 15 nM for the first, 9 nM for the second. The second is the more potent here.

`CC[C@H](C)[C@@H]1NC(=O)[C@H](CC(C)C)NC(=O)[C@H](Cc2c[nH]c3ccccc23)N(C)C(=O)[C@H](Cc2ccc(O)cc2)NC(=O)[C@@H]2CCCN2C(=O)[C@H](CCC(N)=O)NC(=O)[C@H](CCCCN)NC(=O)[C@H](Cc2ccc(O)cc2)NC(=O)CSC[C@@H](C(N)=O)NC(=O)[C@H](Cc2c[nH]c3ccccc23)NC(=O)[C@H](CC(N)=O)NC1=O` ({CH2CO}-YKQPY[NMeW]LINWC-NH2; thioether N-11) and `CC[C@H](C)[C@@H]1NC(=O)[C@H](CCCNC(=N)N)NC(=O)[C@H](Cc2c[nH]c3ccccc23)NC(=O)[C@H]([C@@H](C)O)NC(=O)[C@H](CO)NC(=O)[C@H](CCC(N)=O)NC(=O)[C@H](CCC(N)=O)NC(=O)[C@H](Cc2ccc(O)cc2)NC(=O)CSC[C@@H](C(N)=O)NC(=O)[C@H](Cc2c[nH]c3ccccc23)NC(=O)[C@H](CC(N)=O)NC1=O` ({CH2CO}-YQQSTWRINWC-NH2; thioether N-11) are within 1.5-fold of each other in IC50: 59 nM for the first, 65 nM for the second.

For `CC[C@H](C)[C@@H]1NC(=O)[C@H](CC(C)C)NC(=O)[C@H](Cc2c[nH]c3ccccc23)N(C)C(=O)[C@H](Cc2ccc(O)cc2)NC(=O)[C@@H]2CCCN2C(=O)[C@H](CCC(N)=O)NC(=O)[C@H](C)N(C)C(=O)[C@H](Cc2ccc(O)cc2)NC(=O)CSC[C@@H](C(N)=O)NC(=O)[C@H](Cc2c[nH]c3ccccc23)NC(=O)[C@H](CC(N)=O)NC1=O` ({CH2CO}-Y[NMeA]QPY[NMeW]LINWC-NH2; thioether N-11), the IC50 was 54 nM.
